The RepoRT retention time repository (doi:10.1021/acs.analchem.1c00972)

Assay: RP, Waters ACQUITY UPLC BEH C18, 100 × 1 mm, 1.7 µm, 50 °C, 0.3 mL/min, estimated dead time 0.17 min; A: water + 0.1% formic acid + 20 mM ammonium formate; B: methanol + 0.1% formic acid + 20 mM ammonium formate; gradient (min/%B) 0/0 15/100 21/100 22/0 30/0
Details: stereoisomer not certain

SMILES	LC retention time [min]
CSc1nc(NC(C)C)nc(NC(C)C)n1 [Prometryne]	14.2
CC(C)(C)c1cc(-n2nc3ccccc3n2)c(O)c(C(C)(C)C)c1 [UV-320]	19.8
CCCCCC1=CC(=O)C=C(OC)C1=O [Primin]	14.3
NCCc1ccc(O)cc1 [tyramine]	2.5
O=c1c2ccccc2oc2ccccc12 [Xanthon]	13.6
O=S(=O)(O)C(F)(F)F [Trifluoromethanesulfonic acid]	2
CCOC(=O)c1cn2nc(OP(=S)(OCC)OCC)cc2nc1C [Pyrazophos]	15.9
CCOP(=S)(OCC)SCCS(=O)CC (configuration not stated) [Disulfoton-sulfoxide]	12.7
CC1=NNC(=O)N(N=Cc2cccnc2)C1 [Pymetrozine]	5.76
CC(=O)C1(C)CC2=C(CCCC2(C)C)CC1C (configuration not stated) [ISO E Super]	17.7
O=C(O)/C=C/c1ccccc1 [trans-Cinnamic acid]	9.9
COC1CC(OC2C(C)OC(OC3C(C)=CCC4CC(CC5(CCC(C)C(C(C)C)O5)O4)OC(=O)C4C=C(C)C(O)C5OCC(=CC=CC3C)C45O)CC2OC)OC(C)C1O (configuration not stated) [Ivermectin B1b]	5.5
CC(C)c1ccc(NC(N)=O)cc1 [1-(4-Isopropylphenyl)-Harnstoff]	12.3
Cc1nccc2ccccc12 [1-Methylisochinolin]	6.14
Cc1cccc(C)c1N(Cn1cccn1)C(=O)CO [Metazachlor-OH-deschloro]	11.1
Nc1ccc(S(=O)(=O)Nc2cnc3ccccc3n2)cc1 [Sulfachinoxalin]	14
CCOc1ccccc1C(N)=O [2-Ethoxybenzamide]	10.1
NS(=O)(=O)c1cc2c(cc1Cl)NC=NS2(=O)=O [Chlorthiazide]	4.7
CC1(C)C2CC=C(CO)C1C2 (single isomer, unassigned; (-)) [(-)-Myrtenol]	11.5
Nc1ccc(Cl)c(Cl)c1 [3,4-Dichloroaniline]	17.6
O=c1c(O)c(-c2ccc(O)c(O)c2)oc2cc(O)cc(O)c12 [Quercetin]	11.4
CCCCC(O)(Cn1cncn1)c1ccc(Cl)cc1Cl (configuration not stated) [Hexaconazole]	15.9
O=C(O)c1ccc2ncsc2c1 [Benzothiazole-6-carbons<e4>ure]	9.32

SMILES	LC retention time [min]
CON(C)C(=O)Nc1ccc(Cl)cc1 [Monolinuron]	12.2
CN(C)CCC=C1c2ccccc2COc2ccc(CC(=O)O)cc21 [Olopatadine]	11.5
c1ccc2c(c1)Nc1ccccc1S2 [Phenothiazine]	14.9
COCCOCCOCCOC [Triglyme]	8.28
COc1c2ccoc2c(OC)c2oc(=O)ccc12 [Isopimpinellin]	12.2
CC(=O)OC1C(=O)C2(C)C(O)CC3OCC3(OC(C)=O)C2C(OC(=O)c2ccccc2)C2(O)CC(O)C(C)=C1C2(C)C (configuration not stated) [Baccatin III]	12.5
COc1nn(CSP(=S)(OC)OC)c(=O)s1 [Methidation]	13.2
O=S1(=O)CCCC1 [Sulfolane]	2.73
CCOP(=S)(OCC)Oc1nc(Cl)c(Cl)cc1Cl [Chlorpyriphos-ethyl]	17.1
O=C(O)Cc1c(Cl)ccc(Cl)c1Cl [Chlorfenac]	2.02
CC1=C(C(=O)Nc2ccccc2)CCCO1 [Pyracarbolid]	11.7
CCC(C=CC(C)C1CCC2C3CC=C4CC(O)CCC4(C)C3CCC12C)C(C)C (configuration not stated) [Stigmasterol]	21.3
COc1ccc(-c2coc3cc(O)ccc3c2=O)cc1 [Formononetin]	13.2
COc1ccc2[nH]cc(CCNC(C)=O)c2c1 [Melatonin]	9.71
Cc1ccc(O)cc1 [4-Methylphenol]	14.3
CC=C(C)C(=O)OC1CC[N+]2([O-])CC=C(COC(=O)C(O)(C(C)O)C(C)(C)O)C12 (configuration not stated) [Echimidine N-oxide]	9.37
COCCOCCOC [Diglyme]	7.31
CCCCC(CC)COC(=O)C=Cc1ccc(OC)cc1 (configuration not stated) [Octyl-methoxycinnamate]	18.2
COc1ccc2c3c1OC1C(O)CCC4C(C2)N(C)CCC341 (configuration not stated) [Dihydrocodein]	6.74
CC(=O)OCC(=O)C1(O)C(C)CC2C3CCC4=CC(=O)C=CC4(C)C3(F)C(O)CC21C (configuration not stated) [Betamethasone-21-acetate]	14.1
Cc1ccc(OP(=O)(Oc2ccccc2)Oc2ccccc2)cc1 [Diphenyltolyl phosphate]	16.3
CCOP(=O)(O)OCC [Diethyl phopshate]	16.3
CNCCC(Oc1ccc(C(F)(F)F)cc1)c1ccccc1 (configuration not stated) [Fluoxetine]	13.2

SMILES	LC retention time [min]
CCOP(=O)(OCC)Oc1cc(C)nc(C(C)C)n1 [Diazoxon / Diazinon-oxon]	15.7
CCCCCCCCCCCCCCCC(=O)OCC(O)CO (configuration not stated) [Glyceryl-1-monopalmitate]	18.6
O=C1CCCCCCCCCCCN1 [Dodecane-12-lactam]	14
NC(=O)Cc1c[nH]c2ccccc12 [indoleacetamide]	8
C=CC1CNC(=S)O1 (configuration not stated) [Goitrin]	5
Cc1cccc(C)c1NC(=O)CCl [Metazachlor-N-dealkylation]	10.2
c1ccc(Oc2ccccc2)cc1 [Diphenylether]	13.5
[O-][n+]1nc(-n2ccnc2)nc2ccc(Cl)cc21 [Triazoxide]	11.8
CC(=O)OC1C(=O)C2(C)C(O)CC3OCC3(OC(C)=O)C2C(OC(=O)c2ccccc2)C2(O)CC(OC(=O)C(O)C(NC(=O)c3ccccc3)c3ccccc3)C(C)=C1C2(C)C (configuration not stated) [Taxol]	15
Nc1nc(N)nc(-c2ccccc2)n1 [Benzoguanamine]	7.87
CCOP(=O)(OCC)Oc1nc(Cl)c(Cl)cc1Cl [Chlorpyrifos-oxon]	15.2
COCCOC(=O)c1ccccc1C(=O)OCCOC [Bis(2-methoxyethyl)phthalate]	12.3
O=NNC1=NCCN1Cc1ccc(Cl)nc1 [Imidacloprid-nitrosoimine]	7.84
C1=Cc2ccccc2Nc2ccccc21 [Iminostilbene]	14.5
CCS(=O)(=O)CCSP(=O)(OC)OC [Demeton-S-methyl-sulfone]	7.78
CCNC(=O)NC(=O)C(C#N)=NOC [Cymoxanil]	9.68
c1ccc2[nH]ncc2c1 [Indazole]	4.3
CCOCN(C(=O)C(=O)O)c1c(C)cccc1CC [Acetochlor OA]	15.5
Cc1ccc2n[nH]nc2c1 [5-Methyl-1-H-benzotriazol]	9.89
N#CCCCCC#N [Adiponitrile]	5.21
CN1CCN(C)C1=O [1,3-Dimethyl-2-imidazolidinone]	6.1
